According to patent EP4610269A1, “UROKINASE PLASMINOGEN ACTIVATOR SURFACE RECEPTOR (UPAR) LIGANDS FOR DIAGNOSTIC OR THERAPEUTIC USE” (3B Pharmaceuticals GmbH, priority 2024, dated 2025):
Where a SMILES comes first, the peptide text is derived from it. Bridges are numbered along the chain shown (N, C = ends). [ ]: non-standard residue; d: D form. The star is where a group is joined. DOTA = O=C(O)CN1CCN(CC(=O)O)CCN(CC(=O)*)CCN(CC(=O)O)CC1; X8 = O=C(CN(CC(=O)NC(CO)(CO)CO)CC(=O)*)NC(CO)(CO)CO; Pro(trans-4-F) = O=C(O)[C@@H]1C[C@@H](F)CN1; Phe(3-Cl) = N[C@@H](Cc1cccc(Cl)c1)C(=O)O; Pro(cis-4-F) = O=C(O)[C@@H]1C[C@H](F)CN1; Phe(2-Cl) = N[C@@H](Cc1ccccc1Cl)C(=O)O; Hyp = O=C(O)[C@@H]1C[C@@H](O)CN1; 4Pal = N[C@@H](Cc1ccncc1)C(=O)O; Pentanoyl(4-Me) = CC(C)CCC(=O)*; Cit = NC(=O)NCCC[C@H](N)C(=O)O; Butoxycarbonyl = CCCCOC(=O)*; Chg = N[C@H](C(=O)O)C1CCCCC1; Pen = CC(C)(S)[C@H](N)C(=O)O; Pip = O=C(O)[C@@H]1CCCCN1; Nle = CCCC[C@H](N)C(=O)O; Orn = NCCC[C@H](N)C(=O)O; Api = NC1(C(=O)O)CCNCC1; Dab = NCC[C@H](N)C(=O)O; Nva = CCC[C@H](N)C(=O)O; Pentanoyl = CCCCC(=O)*

Experiments:
[1] = molecular target: T1, uPAR-expressing HEC-265 human endometrial adenocarcinoma cells (Homo sapiens, UniProt Q03405); experiment: Competitive FACS binding assay; details: pIC50 category of FACS binding
T1 construct: Cell surface uPAR-expressing HEC-265 human endometrial adenocarcinoma cells; host or cells: HEC-265
T1 sequence (Q03405 23-335): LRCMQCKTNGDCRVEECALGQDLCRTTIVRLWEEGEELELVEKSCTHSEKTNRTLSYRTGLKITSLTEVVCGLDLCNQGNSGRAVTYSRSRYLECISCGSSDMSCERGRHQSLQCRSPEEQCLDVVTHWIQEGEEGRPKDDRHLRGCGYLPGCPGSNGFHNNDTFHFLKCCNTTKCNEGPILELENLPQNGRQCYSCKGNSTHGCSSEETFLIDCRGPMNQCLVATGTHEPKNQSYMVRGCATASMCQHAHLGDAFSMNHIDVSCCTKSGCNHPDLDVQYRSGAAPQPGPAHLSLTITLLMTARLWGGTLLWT
How it was run: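 Competitive displacement of a 10 nM biotinylated peptide from HEC-265 cells (1 h, 4 °C, PBS/1% BSA), detected via APC-streptavidin by flow cytometry. pIC50 from four-parameter logistic fit of median fluorescence versus concentration.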

human uPAR (uPAR-Fc) = molecular target: T2, human uPAR (uPAR-Fc) (Homo sapiens, UniProt Q03405); experiment: Surface plasmon resonance (SPR) assay, single cycle kinetics; format: binding; details: pKD category for uPAR SPR activity assay; uPAR-Fc on Protein A-Chip, 25°C; read-out: pKD CAT (converted)
T2 construct: comprising amino acids Leu23-Arg303 according to UniProt entry Q03405.1; purchased R&D Systems 10378-UK-100
T2 sequence (Q03405 23-303): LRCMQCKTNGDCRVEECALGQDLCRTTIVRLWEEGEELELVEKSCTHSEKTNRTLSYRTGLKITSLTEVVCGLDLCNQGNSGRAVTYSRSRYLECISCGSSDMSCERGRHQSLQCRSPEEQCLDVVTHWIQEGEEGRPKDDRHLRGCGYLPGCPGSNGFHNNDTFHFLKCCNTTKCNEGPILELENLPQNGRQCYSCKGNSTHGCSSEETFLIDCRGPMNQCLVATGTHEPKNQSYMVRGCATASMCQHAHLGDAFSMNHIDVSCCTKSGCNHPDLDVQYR
How it was run: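 uPAR-Fc (Leu23-Arg303 extracellular domains, human IgG1 Fc) captured on Protein A chip to ~2000 RU; single-cycle kinetics at 25°C in HEPES running buffer pH 7.4 with 0.1% DMSO. KD from double-referenced sensorgrams fitted to 1:1 Langmuir model, reported as pKD.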

Structure (SMILES) | IC50 [1] [nM] | Kd (human uPAR (uPAR-Fc)) [nM]
CCCC[C@@H]1NC(=O)[C@H](CCCNC(=N)N)NC(=O)[C@@H](NC(=O)[C@H](CC(C)C)NC(=O)[C@H](CC(=O)O)NC(C)=O)CSSC[C@@H](C(N)=O)NC(=O)[C@H](CC(C)C)NC(=O)[C@H]([C@@H](C)CC)NC(=O)[C@H](C)NC(=O)[C@H]2CCCN2C(=O)[C@H](Cc2ccccc2)NC(=O)[C@H](Cc2ccc(O)cc2)NC1=O [UPAR-218, Ac-Asp-Leu-[Cys-Arg-Nle-Tyr-Phe-pro-Ala-Ile-Leu-Cys]-NH2] (Ac-DLCR[Nle]YF[dP]AILC-NH2; disulfide 3-12) | ≥ 126 | > 100
CCC[C@@H]1NC(=O)[C@H]([C@@H](C)CC)NC(=O)[C@@H]2C[C@@H](O)CN2C(=O)[C@@H]2CCCN2C(=O)[C@H](Cc2ccccc2)NC(=O)[C@H](Cc2ccc(O)cc2)NC(=O)[C@H](CCC(N)=O)NC(=O)[C@H](CCCNC(=N)N)NC(=O)[C@@H](NC(=O)[C@H](Cc2ccccc2)NC(=O)CN2CCN(CC(=O)O)CCN(CC(=O)O)CCN(CC(=O)O)CC2)CSSC[C@@H](C(N)=O)NC1=O [UPAR-223, DOTA-Phe-[Cys-Arg-Gln-Tyr-Phe-Pro-Hyp-Ile-Nva-Cys]-NH2] ({DOTA}-FCRQYFP[Hyp]I[Nva]C-NH2; disulfide 2-11) | 39.8 to 100 | 10 to 100
CC(C)CCC(=O)N[C@H]1CSSC[C@@H](C(N)=O)NC(=O)[C@H](CC(C)C)NC(=O)[C@H](C2CCCCC2)NC(=O)[C@@H](C)NC(=O)[C@@H]2CCCN2C(=O)[C@H](Cc2ccccc2)NC(=O)[C@H](Cc2ccc(O)cc2)NC(=O)[C@H](CCC(N)=O)NC(=O)[C@H](CCCNC(N)=O)NC1=O [UPAR-225, iHex-[Cys-Cit-Gln-Tyr-Phe-Pro-ala-Chg-Leu-Cys]-NH2] ({Pentanoyl(4-Me)}-C[Cit]QYFP[dA][Chg]LC-NH2; disulfide 1-10) | ≤ 10 | < 1.58
CCCCC(=O)N[C@H]1CSSC[C@@H](C(N)=O)NC(=O)[C@H](CCC)NC(=O)[C@H]([C@@H](C)CC)NC(=O)[C@H](Cc2ccc(O)cc2)NC(=O)[C@@H]2CCCN2C(=O)[C@H](Cc2ccccc2)NC(=O)[C@H](Cc2ccc(O)cc2)NC(=O)[C@H](CCC(N)=O)NC(=O)[C@H](CCCNC(=N)N)NC1=O [UPAR-226, Pent-[Cys-Arg-Gln-Tyr-Phe-Pro-Tyr-Ile-Nva-Cys]-NH2] (Pentanoyl-CRQYFPYI[Nva]C-NH2; disulfide 1-10) | ≤ 10 | < 1.58
CC[C@H](C)[C@@H]1NC(=O)[C@@H](C)NC(=O)[C@@H]2CCCN2C(=O)[C@H](Cc2cccc(Cl)c2)NC(=O)[C@H](Cc2ccc(O)cc2)NC(=O)[C@H](CCC(N)=O)NC(=O)[C@H](CCCNC(N)=O)NC(=O)[C@@H](NC(=O)CCC(C)C)CSSC[C@@H](C(N)=O)NC(=O)[C@H](CC(C)C)NC1=O [UPAR-227, iHex-[Cys-Cit-Gln-Tyr-Mcf-Pro-ala-Ile-Leu-Cys]-NH2] ({Pentanoyl(4-Me)}-C[Cit]QY[Phe(3-Cl)]P[dA]ILC-NH2; disulfide 1-10) | ≤ 10 | < 1.58
CCCCOC(=O)N[C@H]1CSSC[C@@H](C(N)=O)NC(=O)[C@H](CCC)NC(=O)[C@H]([C@@H](C)CC)NC(=O)[C@@H]2C[C@@H](O)CN2C(=O)[C@@H]2C[C@H](F)CN2C(=O)[C@H](Cc2ccccc2)NC(=O)[C@H](Cc2ccc(O)cc2)NC(=O)[C@H](CCNC(=O)CN2CCN(CC(=O)O)CCN(CC(=O)O)CCN(CC(=O)O)CC2)NC(=O)[C@H]([C@@H](C)O)NC1=O [UPAR-228, Butoc-[Cys-Thr-Dab(DOTA)-Tyr-Phe-4Cfp-Hyp-Ile-Nva-Cys]-NH2] (Butoxycarbonyl-CT[Dab](DOTA)YF[Pro(cis-4-F)][Hyp]I[Nva]C-NH2; disulfide 1-10) | ≤ 10 | < 1.58
CCCC[C@@H]1NC(=O)[C@H](CCCNC(=N)N)NC(=O)[C@@H](NC(=O)[C@H](CC(C)C)NC(=O)[C@H](CC(=O)O)NC(C)=O)CSSC[C@@H](C(N)=O)NC(=O)[C@H](CC(C)C)NC(=O)[C@H]([C@@H](C)CC)NC(=O)[C@H](C)NC(=O)[C@@H]2CCCN2C(=O)[C@@H](Cc2ccccc2)NC(=O)[C@H](Cc2ccc(O)cc2)NC1=O [UPAR-230, Ac-Asp-Leu-[Cys-Arg-Nle-Tyr-phe-Pro-Ala-Ile-Leu-Cys]-NH2] (Ac-DLCR[Nle]Y[dF]PAILC-NH2; disulfide 3-12) | ≥ 126 | > 100
CC[C@H](C)[C@@H]1NC(=O)[C@@H](C)NC(=O)[C@@H]2CCCN2C(=O)[C@H](Cc2ccccc2)NC(=O)[C@H](Cc2ccc(O)cc2)NC(=O)[C@H](CCC(N)=O)NC(=O)[C@@H](C)NC(=O)[C@@H](NC(=O)CCC(C)C)CSSC[C@@H](C(N)=O)NC(=O)[C@H](CC(C)C)NC1=O [UPAR-231, iHex-[Cys-ala-Gln-Tyr-Phe-Pro-ala-Ile-Leu-Cys]-NH2] ({Pentanoyl(4-Me)}-C[dA]QYFP[dA]ILC-NH2; disulfide 1-10) | 39.8 to 100 | 10 to 100
CC[C@H](C)[C@@H]1NC(=O)[C@@H](C)NC(=O)[C@@H]2CCCCN2C(=O)[C@H](Cc2ccccc2)NC(=O)[C@H](Cc2ccc(O)cc2)NC(=O)[C@H](CCC(N)=O)NC(=O)[C@H](CCCNC(N)=O)NC(=O)[C@@H](NC(=O)CCC(C)C)CSSC[C@@H](C(N)=O)NC(=O)[C@H](CC(C)C)NC1=O [UPAR-232, iHex-[Cys-Cit-Gln-Tyr-Phe-Pip-ala-Ile-Leu-Cys]-NH2] ({Pentanoyl(4-Me)}-C[Cit]QYF[Pip][dA]ILC-NH2; disulfide 1-10) | ≤ 10 | 1.58 to 10

Other lines, results leading:

IC50 [1] [nM] | Kd (human uPAR (uPAR-Fc)) [nM] | Structure (SMILES)
≤ 10 | 1.58 to 10 | CCCCC(=O)N[C@H]1CSSC(C)(C)[C@@H](C(N)=O)NC(=O)[C@H](CCC)NC(=O)[C@H]([C@@H](C)CC)NC(=O)[C@@H]2C[C@@H](O)CN2C(=O)[C@@H]2CCCN2C(=O)[C@H](Cc2ccccc2)NC(=O)[C@H](Cc2ccc(O)cc2)NC(=O)[C@H](CCC(N)=O)NC(=O)[C@H](CCCNC(N)=O)NC1=O [UPAR-217, Pent-[Cys-Cit-Gln-Tyr-Phe-Pro-Hyp-Ile-Nva-Pen]-NH2] (Pentanoyl-C[Cit]QYFP[Hyp]I[Nva][Pen]-NH2; disulfide 1-10)
≤ 10 | 1.58 to 10 | CC[C@H](C)[C@@H]1NC(=O)C2(CCN(C(=O)CN3CCN(CC(=O)O)CCN(CC(=O)O)CCN(CC(=O)O)CC3)CC2)NC(=O)[C@@H]2CCCN2C(=O)[C@H](Cc2ccccc2)NC(=O)[C@H](Cc2ccc(O)cc2)NC(=O)[C@H](CCC(N)=O)NC(=O)[C@H](CCCNC(N)=O)NC(=O)[C@@H](NC(=O)CCC(C)C)CSSC[C@@H](C(N)=O)NC(=O)[C@H](CC(C)C)NC1=O [UPAR-219, iHex-[Cys-Cit-Gln-Tyr-Phe-Pro-Apc(DOTA)-Ile-Leu-Cys]-NH2] ({Pentanoyl(4-Me)}-C[Cit]QYFP[Api](DOTA)ILC-NH2; disulfide 1-10)
≤ 10 | < 1.58 | CC[C@H](C)[C@@H]1NC(=O)[C@@H]2C[C@@H](F)CN2C(=O)[C@@H]2CCCN2C(=O)[C@H](Cc2ccccc2)NC(=O)[C@H](Cc2ccc(O)cc2)NC(=O)[C@H](CCC(N)=O)NC(=O)[C@H](CCCNC(N)=O)NC(=O)[C@@H](NC(=O)CCC(C)C)CSSC[C@@H](C(N)=O)NC(=O)[C@H](CC(C)C)NC1=O [UPAR-220, iHex-[Cys-Cit-Gln-Tyr-Phe-Pro-4Tfp-Ile-Leu-Cys]-NH2] ({Pentanoyl(4-Me)}-C[Cit]QYFP[Pro(trans-4-F)]ILC-NH2; disulfide 1-10)
≤ 10 | < 1.58 | CC[C@H](C)[C@@H]1NC(=O)[C@@H](C)NC(=O)[C@@H]2CCCN2C(=O)[C@H](Cc2ccccc2Cl)NC(=O)[C@H](Cc2ccc(O)cc2)NC(=O)[C@H](CCC(N)=O)NC(=O)[C@H](CCCNC(N)=O)NC(=O)[C@@H](NC(=O)CCC(C)C)CSSC[C@@H](C(N)=O)NC(=O)[C@H](CC(C)C)NC1=O [UPAR-221, iHex-[Cys-Cit-Gln-Tyr-Ocf-Pro-ala-Ile-Leu-Cys]-NH2] ({Pentanoyl(4-Me)}-C[Cit]QY[Phe(2-Cl)]P[dA]ILC-NH2; disulfide 1-10)
≤ 10 | 1.58 to 10 | CCCCC(=O)N[C@H]1CSSC[C@@H](C(N)=O)NC(=O)[C@H](CCC)NC(=O)[C@H]([C@@H](C)CC)NC(=O)[C@@H]2C[C@@H](O)CN2C(=O)[C@@H]2CCCN2C(=O)[C@H](Cc2ccncc2)NC(=O)[C@H](Cc2ccc(O)cc2)NC(=O)[C@H](CCCCNC(=O)CN2CCN(CC(=O)O)CCN(CC(=O)O)CCN(CC(=O)O)CC2)NC(=O)[C@H](CCCNC(N)=O)NC1=O [UPAR-222, Pent-[Cys-Cit-Lys(DOTA)-Tyr-Ppa-Pro-Hyp-Ile-Nva-Cys]-NH2] (Pentanoyl-C[Cit]K(DOTA)Y[4Pal]P[Hyp]I[Nva]C-NH2; disulfide 1-10)
≤ 10 | < 1.58 | CCCCC(=O)N[C@H]1CSSC[C@@H](C(N)=O)NC(=O)[C@H](CCC)NC(=O)[C@H]([C@@H](C)CC)NC(=O)[C@@H]2C[C@@H](O)CN2C(=O)[C@@H]2CCCN2C(=O)[C@H](Cc2ccccc2)NC(=O)[C@H](Cc2ccc(O)cc2)NC(=O)[C@H](CCCCNC(=O)CN2CCN(CC(=O)O)CCN(CC(=O)O)CCN(CC(=O)O)CC2)NC(=O)[C@H](CCCNC(=O)CN(CC(=O)NC(CO)(CO)CO)CC(=O)NC(CO)(CO)CO)NC1=O [UPAR-224, Pent-[Cys-Orn(Tris-Nta(Tris))-Lys(DOTA)-Tyr-Phe-Pro-Hyp-Ile-Nva-Cys]-NH2] (Pentanoyl-C[Orn](X8)K(DOTA)YFP[Hyp]I[Nva]C-NH2; disulfide 1-10)
